The results in this text go back to article PMC7558282, “The Anticancer Activity for the Bumetanide-Based Analogs via Targeting the Tumor-Associated Membrane-Bound Human Carbonic Anhydrase-IX Enzyme” (Pharmaceuticals, 2020).

In general, IC50 refers to the concentration at which inhibition is half-maximal. High values mean lower potency, low ones higher potency.

Assay [1] has as its system A-498 kidney carcinoma cells. The assay can be described thus: MTT cell proliferation assay, A-498. It counts as cell-based, human. The settings on record: Homo sapiens, A498, 48 h, ±SEM. How it is done: Cells were cultured in 96-well plate, at cell density of 1.2–1.8 × 10^4 cells/well, using Dulbecco’s Modified Eagle Medium (Invitrogen^TM, Carlsbad, CA, USA) supplemented with 10% (w/v) fetal bovine serum (Hyclone^TM, Marlborough, MA, USA), 10 ug/mL of insulin (Sigma-Aldrich^TM, St. Louis, MO, USA), and 1% (w/v) penicillin-streptomycin (Sigma-Aldrich^TM, St. Louis, MO, USA). Following 24h-incubation period under 5% CO2 at 37 °C, cells were treated with compounds’ serial concentrations (0.1 µM–100 µM) in DMSO, where the DMSO final concentration in the culture medium never exceeded 0.2% (v/v). Subsequently, the treated microplates were incubated for 48 h at 5% CO2/37 °C prior to examination under the inverted microscope and proceeding for the MTT assay. The culture medium was discarded and 100 µL of complete medium comprising 5 mg/mL MTT dye were dispensed within every well, then plates were reincubated for 2 h at 5% CO2/37 °C. […] Color intensity within each well was measured spectrophotometrically using the ROBONIK-P2000® ELISA microplate reader (Bio-Tek^TM, Winooski, VT, USA) at 450 nm while subtracting the background absorbance of multi well plates at 690 nm. The experiment was conducted in triplicates and IC50 values were estimated through linear regression between the logarithm-transformed compound concentrations and corresponding % cell viability = (mean absorbance in test wells/mean absorbance in control wells) ∗ 100, having the response variable slope (four parameters) for all samples.

Another assay deals with HEK-293 cells. Put plainly: MTT assay, non-tumorigenic HEK-293. The assay is classed as cell-based. The conditions noted are these: HEK293, normal human embryonic kidney cells. How it is done:
Such differential activity patterns could be explained as off-target activity mediated by the latter compounds being related to a specific cancer cell line.
Figure 3 Antiproliferative activity of compound 9c in tumorigenic A-498 cells and non-tumorigenic HEK-293 cells. The experiment was performed in triplicate and significance was represented as mean ± S.D. ** = p < 0.01; *** = p < 0.001 between indicated groups.
The colorimetric MTT Cell Proliferation® Assay Kit (Cat. №. 10009365; Cayman Chemical^TM, Ann Arbor, MI, USA) has been utilized to assess the cytotoxic impact of the investigated compounds on solid cancer cell lines. […] Color intensity within each well was measured spectrophotometrically using the ROBONIK-P2000® ELISA microplate reader (Bio-Tek^TM, Winooski, VT, USA) at 450 nm while subtracting the background absorbance of multi well plates at 690 nm. The experiment was conducted in triplicates and IC50 values were estimated through linear regression between the logarithm-transformed compound concentrations and corresponding % cell viability = (mean absorbance in test wells/mean absorbance in control wells) ∗ 100, having the response variable slope (four parameters) for all samples.

Consider `CCCCNc1cc(-c2n[nH]c(=S)n2-c2ccc(Br)cc2)cc(S(N)(=O)=O)c1Oc1ccccc1` [Compound 9c], for which the results for the IC50 (in assay [1]; in the assay with HEK-293 cells) were 5.07 ± 0.11 µM and more than 50 µM, respectively.
